Four compounds from US7102000B2, “Heterocyclic amide derivatives for the treatment of diabetes and other diseases” (Incyte San Diego Inc., priority 2002, dated 2006) can be followed below.

The subject of one test is KKA^y mice. Description: Oral treatment of type 2 diabetes in KKA^y mice (serum glucose, triglyceride, cholesterol). The format is in vivo, mouse. The settings on record: KKA^y mice, oral once daily, vs control mice, FIGS. 2a–d. An excerpt: The procedure for this in-vivo assay for anti-diabetes activity was described in detail by Iwatsuka, et al. (1970 General Survey of Diabetic Features of Yellow KK Mice. Endocrinol. Japon. 17: 23–35, incorporated herein in its entirety by reference).
Experimental Procedures: Six to eight week-old male KKA^y mice (obtained from Jackson Labs of Bar Harbord, Me.) were housed in a fixed 12–12-hr artificial light-dark cycle, and maintained on a standard rodent diet provided ad libitum. Animals were allowed two days to acclimate in this experimental environment prior to the initiation of the study.
Prior to initiation of treatment with the compounds of the invention, the animals were bled from the tail vein (100–200 μL of whole blood) and serum levels of glucose and triglycerides were measured in duplicate (Trinder kits; Sigma, St. Louis, Mo.). Based on these initial measures, animals were sorted into groups with approximately the same average serum glucose levels. Once sorted, the animals were housed one per cage and provided rodent diet ad libitum. Unless otherwise indicated, compounds were suspended in sesame oil, and administered by oral gavage once daily to animals in a volume of 3 ml/kg/dose.
Treatment Group A (n=5/group): (See Results in FIG. 2a) • 1) KKA^y vehicle control (sesame oil) • 2) Compound 1 (3 mg/kg) • 3) Compound 1 (10 mg/kg) • 4) Compound 2 (3 mg/kg) • 5) Compound 2 (10 mg/kg)
Treatment Group B (n=6/group): (See Results in FIG. 2b) • 1) KKA^y vehicle control (sesame oil) • 2) Compound 11 (15 mg/kg)
Treatment Group C (n=6/group): (See Results in FIG. 2c) • 1) KKA^y vehicle control (sesame oil) • 2) Compound 13 (15 mg/kg)
Treatment Group D (n=6/group): (See Results in FIG. 2d) • 1) KKA^y vehicle control (CMC) • 2) Compound 25 (3 mg/kg, CMC) Compound 25 was suspended in a solution of carboxymethyl cellulose (CMC; 1% carboxy methyl cellulose in H2O, with 10% polyethelene glycol 400), and administered to animals in a volume of 5 ml/kg/dose.
Treatment Group E (n=5/group): (See Results in FIG. 2e) • 1) KKA^y vehicle control (10% HPβCD) • 2) Compound 25 (1 mg/kg) • 3) Compound 25 (3 mg/kg) • 4) Compound 25 (10 mg/kg) Compound 25 was dissolved in a 10% hydroxy propyl beta cyclodextrin solution, and administered to animals in a volume of 10 ml/kg/dose.
Serum glucose, triglyceride and/or cholesterol levels were measured in duplicate. The blood is kept at room temperature to allow coagulation, after which the serum is separated and assayed for glucose, triglyceride and/or cholesterol levels. As shown in FIGS. 2a–2d all of the compounds tested reduced serum glucose and triglyceride levels, some with doses as low as 3 mg/kg when administered once a day.

In test [1] the test system is carcinogen induced mammary tumors. Nature of the test: Progression of carcinogen induced mammary tumors in Sprague Dawley rats. The format is in vivo, rat. To be noted: oral once daily for four weeks, FIG. 6; for growth / progression of mammary (breast cancer) tumors: vs vehicle treated controls; for number of static tumors: compared to control animals. How it is done: Procedure: Five week-old female Sprague Dawley rats (Harlan) were housed in a fixed 12–12-hr artificial light-dark cycle, and maintained on a standard rodent diet provided ad libitum. Animals were allowed two days to acclimate in this experimental environment prior to the initiation of the study.
To induce mammary tumors, the female […] were injected intraperitoneally with the carcinogen n-nitroso-n-methylurea, in a single dose of 50 mg/kg in acidified normal saline (pH 4 w/acetic acid) at a final volume of 10 mg/ml (5 ml/kg). After eight weeks, mammary tumors are detected, and the tumor bearing females are sorted into treatment groups. Once sorted, the animals were housed four per cage and provided rodent diet ad libitum. All animals are treated with compound 1 or a vehicle for four weeks, during which time changes in tumor size are monitored. Tumors were classified as regressing, static or progressing.
Treatment groups (n=8/group): • 1) Control (sesame oil) • 2) Compound 6 (20 mg/kg) • 3) Compound 11 (100 mg/kg) • 4) Compound 13 (50 mg/kg) • 5) Compound 24 (50 mg/kg) • 6) Compound 25 (20 mg/kg) • 7) Compound 25 (100 mg/kg)
All of the compounds tested were suspended in sesame oil, and administered to animals in a volume of 3 ml/kg/dose, except compound 25 which was dissolved in a 10% hydroxy propyl beta cyclodextrin solution, and administered to animals in a volume of 10 ml/kg/dose. All treatments were administered by oral gavage once daily for four weeks.
To monitor the effect of the tested compound, animals were examined for mammary tumors once every week. Tumors were classified into one of three categories, progressing, static or regressing.

Test [2] deals with diet-induced hypercholesterolemic Sprague Dawley rats. Description: Diet-induced hypercholesterolemia in wild type Sprague Dawley rats (total, HDL, LDL cholesterol). The format is in vivo, rat. To be noted: Sprague Dawley rats on atherogenic diet, oral once daily, day 5, FIGS. 5a–c. The text has this:
Experimental Procedure: Six week-old male Sprague Dawley rats (obtained from Harlan of San Diego, Calif.) were housed in a fixed 12—12-hr artificial light-dark cycle, and maintained on a high cholesterol atherogenic diet (Paigen's Diet, obtained from Research Diet Inc. of New Brounswick, N.J.) was provided ad libitum. Animals were allowed six days to acclimate in this experimental environment prior to the initiation of the study.
Prior to initiation of treatment, the animals were bled from the tail vein (100–200 μL of whole blood) and serum levels of cholesterol were measured in duplicate (Cholesterol Infinity kits; Sigma, St. Louis, Mo.). Based on these initial measures, animals were sorted into groups with approximately the same average total cholesterol levels. Once sorted, the animals were housed three per cage and maintained on Paigen's diet ad libitum. All compounds to be tested were suspended in sesame oil and administered in a final volume of 3 ml/kg. Drug is administered by oral gavage once daily at the beginning of the artificial light cycle. To obtain a base line for lipid measurement, a control group maintained on standart rodent diet is included (lean control).
Treatment Group A (n=6/group): (See Results in FIG. 5a) • 1) Lean control (Sesame Oil) • 2) Control • 3) Compound 2 (0.3 mg/kg) • 4) Compound 2 (1 mg/kg) • 5) Compound 2 (3 mg/kg)
Treatment Group B (n=6/group): (See Results in FIG. 5b) • 1) Lean control (Sesame Oil) • 2) Control • 3) Compound 6 (3 mg/kg)
Treatment Group C (n=6/group): (See Results in FIG. 5c) • 1) Lean control (10% HPβCD) • 2) Control • 3) Compound 25 (1 mg/kg) • 4) Compound 25 (3 mg/kg) • 5) Compound 25 (10 mg/kg) • 6) Compound 25 (15 mg/kg) • The compounds were dissolved in a 10% hydroxy propyl beta cyclodextrin solution, and administered to animals in a volume of 10 ml/kg/dose.
To monitor the effect of the tested compounds, animals were bled from the tail vein at the end of the dark cycle on days 0 (for sorting) and day 5 of the treatment period. Fed serum cholesterol levels were measured in duplicate. The blood is kept at room temperature to allow coagulation, after which the serum is separated and assayed for total cholesterol (Infinity reagent, Sigma), HDL cholesterol (using HDL precipitating reagent and infinity reagent, Sigma) and LDL cholesterol (EZLDL kit, Sigma). As shown in FIGS. 5a–c, all compounds tested show significant reduction in total and LDL cholesterol levels and a significant increase in HDL cholesterol levels compared to high fat fed control animals.

Regarding `Cc1cc2c(cc1-c1cc(/C=C3\SC(=O)NC3=O)ccc1OC(F)(F)F)N(C)C(=O)CC2(C)C` [Compound 1, 5-[3-(1,4,4,6-Tetramethyl-2-oxo-1,2,3,4-tetrahydro-quinolin-7-yl)-4-trifluoromethoxy-benzylidene]-thiazolidine-2,4-dione], in the test with KKA^y mice, the serum glucose level entry is on record as “decrease” and the serum triglyceride level result is “decrease”.

On to `CCN1C(=O)CC(C)(C)c2cc(C)c(-c3cc(/C=C4\SC(=O)NC4=O)ccc3Cl)cc21` [Compound 6, 5-[3-(1-Ethyl-4,4,6-trimethyl-2-oxo-1,2,3,4-tetrahydro-quinolin-7-yl)-4-chloro-benzylidene]-thiazolidine-2,4-dione], for which, in test [1], the “growth / progression of mammary (breast cancer) tumors” value (“growth / progression of mammary” for short) is “slow or cause regression”. Also, in test [2], the HDL cholesterol entry is given as “increasing”, the LDL cholesterol entry was “decrease” and the total cholesterol entry was “decrease”.

Turning to `Cc1cc2c(cc1-c1cc(/C=C3\SC(=O)NC3=O)ccc1OC(F)(F)F)N(C(C)C)C(=O)CC2(C)C` [Compound 11, 5-[3-(1-Isopropyl-4,4,6-trimethyl-2-oxo-1,2,3,4-tetrahydro-quinolin-7-yl)-4-trifluoromethoxy-benzylidene]-thiazolidine-2,4-dione], in test [1], the regression of tumors entry is “without causing any regressions”, the “number of static tumors” value is given as “only increase the number of static tumors” and the “growth / progression of mammary” value is “slow or cause regression”. In addition, in the test with KKA^y mice, the serum glucose level result is “decrease” and the serum triglyceride level result is on record as “decrease”.

Regarding `CCN1C(=O)CC(C)(C)c2cc(C)c(-c3c(F)c(/C=C4\SC(=O)NC4=O)cc(F)c3OC)cc21` [Compound 13, 5-[3-(1-Ethyl-4,4,6-trimethyl-2-oxo-1,2,3,4-tetrahydro-quinolin-7-yl)-2,5-difluoro-4-methoxy-benzylidene]-thiazolidine-2,4-dione], in test [1], the regression of tumors result was “without causing any regressions”, the “number of static tumors” value is “only increase the number of static tumors” and the “growth / progression of mammary” value is “slow or cause regression”. In addition, in the test on KKA^y mice, the serum glucose level entry is given as “decrease” and the serum triglyceride level result is given as “decrease”.
